Source: ChEMBL document CHEMBL1201861, “Genomics of Drug Sensitity in Cancer screening data, Wellcome Trust Sanger Institute”
Counter-ions that a name gives are not always drawn.

Legend:
Test in all cases: cells
TE-1 = format: functional, cell-based, Homo sapiens; conditions: Homo sapiens, TE-1;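 note: growth inhibition of the human TE-1 cell line, read out with a cell viability assay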
Description: SANGER: Inhibition of human TE-1 cell growth in a cell viability assay.

SNU-5 = format: functional, cell-based, Homo sapiens; conditions: Homo sapiens, SNU-5;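 note: cell viability readout used to measure growth inhibition in human NCI-SNU-5 cells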
Description: SANGER: Inhibition of human NCI-SNU-5 cell growth in a cell viability assay.

COLO-684 = format: functional, cell-based, Homo sapiens; conditions: Homo sapiens, COLO-684
Description: SANGER: Inhibition of human COLO-684 cell growth in a cell viability assay.

SK-NEP-1 = format: functional, cell-based, Homo sapiens; conditions: Homo sapiens, SK-NEP-1;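 note: growth inhibition of human SK-NEP-1 cells, read out by a cell viability assay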
Description: SANGER: Inhibition of human SK-NEP-1 cell growth in a cell viability assay.

no-11 = format: functional, cell-based, Homo sapiens; conditions: Homo sapiens;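 note: growth inhibition of human NO-11 cells, read out with a cell viability assay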
Description: SANGER: Inhibition of human no-11 cell growth in a cell viability assay.

HDLM-2 = format: functional, cell-based, Homo sapiens; conditions: Homo sapiens, HDLM-2;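 note: cell viability assay measuring suppression of HDLM-2 proliferation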
Description: SANGER: Inhibition of human HDLM-2 cell growth in a cell viability assay.

JVM-2 = format: functional, cell-based, Homo sapiens; conditions: Homo sapiens, JVM-2;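 note: growth inhibition of JVM-2 cells determined by a cell viability assay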
Description: SANGER: Inhibition of human JVM-2 cell growth in a cell viability assay.

LB2241-RCC = format: functional, cell-based, Homo sapiens; conditions: Homo sapiens, LB2241-RCC;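 note: cell viability assay measuring how strongly the cultured human renal carcinoma line is prevented from growing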
Description: SANGER: Inhibition of human LB2241-RCC cell growth in a cell viability assay.

SW 954 = format: functional, cell-based, Homo sapiens; conditions: Homo sapiens, SW 954;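 note: growth inhibition of SW954 human cancer cells, read out as cell viability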
Description: SANGER: Inhibition of human SW954 cell growth in a cell viability assay.

CP66-MEL = format: functional, cell-based, Homo sapiens; conditions: Homo sapiens, CP66-MEL;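 note: growth inhibition of CP66-MEL cells determined in a cell viability assay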
Description: SANGER: Inhibition of human CP66-MEL cell growth in a cell viability assay.

UACC-257 = format: functional, cell-based, Homo sapiens; conditions: Homo sapiens, UACC-257
Description: SANGER: Inhibition of human UACC-257 cell growth in a cell viability assay.

NOS-1 = format: functional, cell-based, Homo sapiens; conditions: Homo sapiens, NOS-1;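 note: growth inhibition of the human NOS-1 cell line, read out with a cell viability assay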
Description: SANGER: Inhibition of human NOS-1 cell growth in a cell viability assay.

LB831-BLC = format: functional, cell-based, Homo sapiens; conditions: Homo sapiens, LB831-BLC;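 note: growth inhibition of LB831-BLC cells, read out with a cell viability assay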
Description: SANGER: Inhibition of human LB831-BLC cell growth in a cell viability assay.

NCI-H1395 = format: functional, cell-based, Homo sapiens; conditions: Homo sapiens, NCI-H1395;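 note: cell viability assay read-out quantifying reduced proliferation of human NCI-H1395 cells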
Description: SANGER: Inhibition of human NCI-H1395 cell growth in a cell viability assay.

MZ7-mel = format: functional, cell-based, Homo sapiens; conditions: Homo sapiens, MZ7-mel;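 note: growth inhibition of human MZ7-mel cells, measured by a cell viability assay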
Description: SANGER: Inhibition of human MZ7-mel cell growth in a cell viability assay.

MSTO-211H = format: functional, cell-based, Homo sapiens; conditions: Homo sapiens, MSTO-211H
Description: SANGER: Inhibition of human MSTO-211H cell growth in a cell viability assay.

RS4-11 = format: functional, cell-based, Homo sapiens; conditions: Homo sapiens, RS4-11;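 note: growth inhibition of RS4-11 cells, read out by a cell viability assay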
Description: SANGER: Inhibition of human RS4-11 cell growth in a cell viability assay.

NMC-G1 = format: functional, cell-based, Homo sapiens; conditions: Homo sapiens, NMC-G1;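 note: growth inhibition of the NMC-G1 cell line, measured with a cell viability read-out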
Description: SANGER: Inhibition of human NMC-G1 cell growth in a cell viability assay.

OCI-AML2 = format: functional, cell-based, Homo sapiens; conditions: Homo sapiens, OCI-AML2;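 note: growth inhibition of OCI-AML2 cells, read out with a cell viability assay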
Description: SANGER: Inhibition of human OCI-AML2 cell growth in a cell viability assay.

BT-474 = format: functional, cell-based, Homo sapiens; conditions: Homo sapiens, BT-474
Description: SANGER: Inhibition of human BT-474 cell growth in a cell viability assay.

MOLT-4 = format: functional, cell-based, Homo sapiens; conditions: Homo sapiens, MOLT-4;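 note: growth inhibition of MOLT-4 cells, determined with a cell viability readout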
Description: SANGER: Inhibition of human MOLT-4 cell growth in a cell viability assay.

DU-4475 = format: functional, cell-based, Homo sapiens; conditions: Homo sapiens, DU-4475
Description: SANGER: Inhibition of human DU-4475 cell growth in a cell viability assay.

KS-1 = format: functional, cell-based, Homo sapiens; conditions: Homo sapiens, KS-1;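 note: growth inhibition of KS-1 cells, read out with a cell viability assay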
Description: SANGER: Inhibition of human KS-1 cell growth in a cell viability assay.

SH-4 = format: functional, cell-based, Homo sapiens; conditions: Homo sapiens, SH-4;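 note: growth inhibition of SH-4 cells, read out with a cell viability assay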
Description: SANGER: Inhibition of human SH-4 cell growth in a cell viability assay.

NKM-1 = format: functional, cell-based, Homo sapiens; conditions: Homo sapiens, NKM-1;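 note: growth inhibition of NKM-1 cells, read out with a cell viability assay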
Description: SANGER: Inhibition of human NKM-1 cell growth in a cell viability assay.

EM-2 = format: functional, cell-based, Homo sapiens; conditions: Homo sapiens, EM-2;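 note: growth inhibition of EM-2 cells, read out with a cell viability assay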
Description: SANGER: Inhibition of human EM-2 cell growth in a cell viability assay.

HuTu80 = format: functional, cell-based, Homo sapiens, HUTU-80; conditions: Homo sapiens, HuTu80;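 note: growth inhibition of HuTu80 human cells, determined with a cell viability readout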
Description: SANGER: Inhibition of human HUTU-80 cell growth in a cell viability assay.

MV4-11 = format: functional, cell-based, Homo sapiens, MV-4-11; conditions: Homo sapiens, MV4-11;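 note: cell viability readout measuring growth inhibition of human MV-4-11 cells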
Description: SANGER: Inhibition of human MV-4-11 cell growth in a cell viability assay.

LB996-RCC = format: functional, cell-based, Homo sapiens; conditions: Homo sapiens, LB996-RCC
Description: SANGER: Inhibition of human LB996-RCC cell growth in a cell viability assay.

SK-N-DZ = format: functional, cell-based, Homo sapiens; conditions: Homo sapiens, SK-N-DZ;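 note: growth inhibition of the cancer cell line, read out through a viability assay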
Description: SANGER: Inhibition of human SK-N-DZ cell growth in a cell viability assay.

CAS-1 = format: functional, cell-based, Homo sapiens; conditions: Homo sapiens, CAS-1;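 note: growth inhibition of CAS-1 cells, measured with a cell viability assay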
Description: SANGER: Inhibition of human CAS-1 cell growth in a cell viability assay.

ACN = format: functional, cell-based, Homo sapiens; conditions: Homo sapiens, ACN;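 note: growth inhibition of the human ACN cell line, read out via cell viability testing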
Description: SANGER: Inhibition of human ACN cell growth in a cell viability assay.

D-263MG = format: functional, cell-based, Homo sapiens; conditions: Homo sapiens, D-263MG
Description: SANGER: Inhibition of human D-263MG cell growth in a cell viability assay.

697 = format: functional, cell-based, Homo sapiens; conditions: Homo sapiens
Description: SANGER: Inhibition of human 697 cell growth in a cell viability assay.

MEG-01 = format: functional, cell-based, Homo sapiens; conditions: Homo sapiens, MEG-01;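 note: growth inhibition of MEG-01 cells, read out by a cell viability assay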
Description: SANGER: Inhibition of human MEG-01 cell growth in a cell viability assay.

MHH-PREB-1 = format: functional, cell-based, Homo sapiens; conditions: Homo sapiens, MHH-PREB-1;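 note: cell viability assay measuring inhibition of proliferation of human MHH-PREB-1 cells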
Description: SANGER: Inhibition of human MHH-PREB-1 cell growth in a cell viability assay.

TGBC24TKB = format: functional, cell-based, Homo sapiens; conditions: Homo sapiens, TGBC24TKB;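 note: growth inhibition of human TGBC24TKB cells, read out with a cell viability assay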
Description: SANGER: Inhibition of human TGBC24TKB cell growth in a cell viability assay.

NCI-H1304 = format: functional, cell-based, Homo sapiens; conditions: Homo sapiens, NCI-H1304;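 note: growth inhibition of the cancer cell line, measured in a cell viability assay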
Description: SANGER: Inhibition of human NCI-H1304 cell growth in a cell viability assay.

NTERA-2-cl-D1 = format: functional, cell-based, Homo sapiens; conditions: Homo sapiens, NTERA-2-cl-D1;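 note: inhibition of cell growth, measured with a cell viability assay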
Description: SANGER: Inhibition of human NTERA-S-cl-D1 cell growth in a cell viability assay.

NB12 = format: functional, cell-based, Homo sapiens; conditions: Homo sapiens, NB12;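 note: growth inhibition of human NB12 cells, read out by a cell viability assay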
Description: SANGER: Inhibition of human NB12 cell growth in a cell viability assay.

TE-8 = format: functional, cell-based, Homo sapiens; conditions: Homo sapiens, TE-8;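 note: growth inhibition of TE-8 cells, measured with a cell viability readout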
Description: SANGER: Inhibition of human TE-8 cell growth in a cell viability assay.

NCI-H1155 = format: functional, cell-based, Homo sapiens; conditions: Homo sapiens, NCI-H1155;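 note: cell growth inhibition measured by a viability assay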
Description: SANGER: Inhibition of human NCI-H1155 cell growth in a cell viability assay.

ALL-PO = format: functional, cell-based, Homo sapiens; conditions: Homo sapiens, ALL-PO;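 note: growth inhibition of ALL-PO cells, read out by a cell viability assay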
Description: SANGER: Inhibition of human ALL-PO cell growth in a cell viability assay.

VA-ES-BJ = format: functional, cell-based, Homo sapiens; conditions: Homo sapiens, VA-ES-BJ;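 note: growth inhibition of the VA-ES-BJ cell line, read out by a cell viability assay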
Description: SANGER: Inhibition of human VA-ES-BJ cell growth in a cell viability assay.

KARPAS-299 = format: functional, cell-based, Homo sapiens; conditions: Homo sapiens, KARPAS-299
Description: SANGER: Inhibition of human KARPAS-299 cell growth in a cell viability assay.

GI-ME-N = format: functional, cell-based, Homo sapiens; conditions: Homo sapiens, GI-ME-N;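 note: growth inhibition of human GI-ME-N cells, read out with a cell viability assay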
Description: SANGER: Inhibition of human GI-ME-N cell growth in a cell viability assay.

TE-6 = format: functional, cell-based, Homo sapiens; conditions: Homo sapiens, TE-6;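 note: growth inhibition of TE-6 cells, read out with a cell viability assay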
Description: SANGER: Inhibition of human TE-6 cell growth in a cell viability assay.

SW 962 = format: functional, cell-based, Homo sapiens; conditions: Homo sapiens, SW 962;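 note: growth inhibition of human SW962 cells, read out by a cell viability assay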
Description: SANGER: Inhibition of human SW962 cell growth in a cell viability assay.

Nc1ccn([C@@H]2O[C@H](CO)[C@@H](O)C2(F)F)c(=O)n1 [GEMCITABINE]
IC50 (TE-1): > 1020 nM
IC50 (SNU-5): 12.1 nM
IC50 (COLO-684): 26.4 nM
IC50 (SK-NEP-1): 22.9 nM
IC50 (no-11): 737 nM
IC50 (HDLM-2): > 1020 nM
IC50 (JVM-2): > 1020 nM
IC50 (LB2241-RCC): < 4 nM
IC50 (SW 954): 23.7 nM
IC50 (CP66-MEL): > 1020 nM
IC50 (UACC-257): 364 nM
IC50 (NOS-1): 32.4 nM
IC50 (LB831-BLC): 41.9 nM
IC50 (NCI-H1395): > 1020 nM
IC50 (MZ7-mel): 42.7 nM
IC50 (MSTO-211H): > 1020 nM
IC50 (RS4-11): < 4 nM
IC50 (NMC-G1): 8.76 nM
IC50 (OCI-AML2): < 4 nM
IC50 (BT-474): > 1020 nM
IC50 (MOLT-4): 65.3 nM
IC50 (DU-4475): 3.14 nM
IC50 (KS-1): 167 nM
IC50 (SH-4): 9.02 nM
IC50 (NKM-1): < 4 nM
IC50 (EM-2): 160 nM
IC50 (HuTu80): < 4 nM
IC50 (MV4-11): < 4 nM
IC50 (LB996-RCC): 65.1 nM
IC50 (SK-N-DZ): 86.6 nM
IC50 (CAS-1): 955 nM
IC50 (ACN): < 4 nM
IC50 (D-263MG): > 1020 nM
IC50 697: 6.25 nM
IC50 (MEG-01): 1.27 nM
IC50 (MHH-PREB-1): 248 nM
IC50 (TGBC24TKB): > 1020 nM
IC50 (NCI-H1304): 385 nM
IC50 (NTERA-2-cl-D1): 1.64 nM
IC50 (NB12): 155 nM
IC50 (TE-8): 8 nM
IC50 (NCI-H1155): 488 nM
IC50 (ALL-PO): < 4 nM
IC50 (VA-ES-BJ): 5.26 nM
IC50 (KARPAS-299): 252 nM
IC50 (GI-ME-N): > 1020 nM
IC50 (TE-6): 250 nM
IC50 (SW 962): 52.4 nM

COC1=CC(c2cc3ccccc3[nH]2)=N/C1=C\c1[nH]c(C)cc1C [OBATOCLAX MESYLATE]
IC50 (TE-1): 144 nM
IC50 (SNU-5): 856 nM
IC50 (COLO-684): 656 nM
IC50 (SK-NEP-1): 1820 nM
IC50 (no-11): 1510 nM
IC50 (HDLM-2): 420 nM
IC50 (JVM-2): 3940 nM
IC50 (LB2241-RCC): 761 nM
IC50 (SW 954): 403 nM
IC50 (CP66-MEL): 871 nM
IC50 (UACC-257): 595 nM
IC50 (NOS-1): 64.1 nM
IC50 (LB831-BLC): 444 nM
IC50 (NCI-H1395): > 16000 nM
IC50 (MZ7-mel): < 62.5 nM
IC50 (MSTO-211H): 4840 nM
IC50 (RS4-11): 85 nM
IC50 (NMC-G1): 319 nM
IC50 (OCI-AML2): 57.8 nM
IC50 (BT-474): 175 nM
IC50 (MOLT-4): 477 nM
IC50 (DU-4475): 162 nM
IC50 (KS-1): 305 nM
IC50 (SH-4): < 62.5 nM
IC50 (NKM-1): < 62.5 nM
IC50 (EM-2): 3640 nM
IC50 (HuTu80): 104 nM
IC50 (MV4-11): 180 nM
IC50 (LB996-RCC): 471 nM
IC50 (SK-N-DZ): 859 nM
IC50 (CAS-1): 1090 nM
IC50 (ACN): < 62.5 nM
IC50 (D-263MG): 3150 nM
IC50 697: 53.2 nM
IC50 (MEG-01): 454 nM
IC50 (MHH-PREB-1): < 62.5 nM
IC50 (TGBC24TKB): 3680 nM
IC50 (NCI-H1304): 1640 nM
IC50 (NTERA-2-cl-D1): 104 nM
IC50 (NB12): 725 nM
IC50 (TE-8): 98.9 nM
IC50 (NCI-H1155): 6960 nM
IC50 (ALL-PO): 242 nM
IC50 (VA-ES-BJ): 700 nM
IC50 (KARPAS-299): > 16000 nM
IC50 (GI-ME-N): 5010 nM
IC50 (TE-6): 1040 nM
IC50 (SW 962): 65.7 nM

C=C(c1ccc(C(=O)O)cc1)c1cc2c(cc1C)C(C)(C)CCC2(C)C [BEXAROTENE]
IC50 (TE-1): > 8000 nM
IC50 (SNU-5): > 8000 nM
IC50 (COLO-684): > 8000 nM
IC50 (SK-NEP-1): > 8000 nM
IC50 (no-11): > 8000 nM
IC50 (HDLM-2): > 8000 nM
IC50 (JVM-2): > 8000 nM
IC50 (LB2241-RCC): > 8000 nM
IC50 (SW 954): > 8000 nM
IC50 (CP66-MEL): > 8000 nM
IC50 (UACC-257): > 8000 nM
IC50 (NOS-1): 6920 nM
IC50 (LB831-BLC): > 8000 nM
IC50 (NCI-H1395): > 8000 nM
IC50 (MZ7-mel): > 8000 nM
IC50 (MSTO-211H): > 8000 nM
IC50 (RS4-11): > 8000 nM
IC50 (NMC-G1): > 8000 nM
IC50 (OCI-AML2): > 8000 nM
IC50 (BT-474): > 8000 nM
IC50 (MOLT-4): > 8000 nM
IC50 (DU-4475): > 8000 nM
IC50 (KS-1): > 8000 nM
IC50 (SH-4): 5310 nM
IC50 (NKM-1): > 8000 nM
IC50 (EM-2): > 8000 nM
IC50 (HuTu80): > 8000 nM
IC50 (MV4-11): 453 nM
IC50 (LB996-RCC): > 8000 nM
IC50 (SK-N-DZ): > 8000 nM
IC50 (CAS-1): > 8000 nM
IC50 (ACN): > 8000 nM
IC50 (D-263MG): > 8000 nM
IC50 697: > 8000 nM
IC50 (MEG-01): > 8000 nM
IC50 (MHH-PREB-1): > 8000 nM
IC50 (TGBC24TKB): > 8000 nM
IC50 (NCI-H1304): > 8000 nM
IC50 (NTERA-2-cl-D1): > 8000 nM
IC50 (NB12): > 8000 nM
IC50 (TE-8): > 8000 nM
IC50 (NCI-H1155): > 8000 nM
IC50 (ALL-PO): 5860 nM
IC50 (VA-ES-BJ): > 8000 nM
IC50 (KARPAS-299): > 8000 nM
IC50 (GI-ME-N): > 8000 nM
IC50 (TE-6): > 8000 nM
IC50 (SW 962): > 8000 nM
